Measurements from patent US20200360520A1, “USE OF RIFAMYCIN-QUINOLIZIDONE COUPLING MOLECULE” (priority 2019, published 2020).
Converted amounts (≈) assume the structure as drawn. Like-named read-outs stand apart in the source and are kept apart here. Each block holds one compound with its values, some of them ahead of it.

Legend:
Type in all cases: cell-based
Mycobacterium avium [1] = assay: MIC by micro broth dilution method (resazurin microtiter assay); details: read-out: Minimum Inhibitory Concentration (MIC)
Mycobacterium abscessus [2] = assay: as above; details: Mycobacteroides abscessus, read-out: Minimum Inhibitory Concentration (MIC)
Mycobacterium kansasii [3] = assay: as above; details: for MIC: Mycobacterium kansasii, read-out: Minimum Inhibitory Concentration (MIC)
Mycobacterium avium [4] = assay: MBC test (plating on agar, CFU count); details: for MBC: Mycobacterium avium, read-out: Minimum Bactericidal Concentration (MBC)
Mycobacterium abscessus [5] = assay: MBC test (plating on agar, CFU count); details: for Minimum Bactericidal Concentration (MBC): MH Culture Medium; for MBC: Mycobacteroides abscessus, 7H9 Culture Medium, read-out: Minimum Bactericidal Concentration (MBC)
Mycobacterium kansasii [6] = assay: MBC test (plating on agar, CFU count); details: for MBC: Mycobacterium kansasii, read-out: Minimum Bactericidal Concentration (MBC)
[7] = tested on: Mycobacterium intracellulare; assay: MIC by micro broth dilution method (resazurin microtiter assay); details: for MIC: Mycobacterium intracellulare, MH Culture Medium, read-out: Minimum Inhibitory Concentration (MIC)
[8] = tested on: Mycobacterium massiliense; assay: as above; details: for MIC: Mycobacteroides abscessus, read-out: Minimum Inhibitory Concentration (MIC)
Mycobacterium fortuitum = assay: as above; details: Mycolicibacterium fortuitum, MH Culture Medium, read-out: Minimum Inhibitory Concentration (MIC)
Mycodacterium chelonei = assay: as above; details: MH Culture Medium; Chelonei (standard strain); read-out: Minimum Inhibitory Concentration (MIC)
[9] = 7H9 Broth, Mycobacterium avium Rough
[10] = 7H9 Broth, Mycobacterium avium Smooth
[11] = MH Broth, Mycobacterium avium Rough
[12] = MH Broth, Mycobacterium avium Smooth
[13] = MH Culture Medium, Avium (standard strain)
[14] = MH Culture Medium, clinically isolated strain Avium (S31)
[15] = MH Culture Medium, clinically isolated strain Avium (S123)
[16] = MH Culture Medium, clinically isolated strain Avium (S559)
[17] = MH Culture Medium, clinically isolated strain Avium (S568)
[18] = MH Culture Medium, clinically isolated strain Avium (S577)
[19] = MH Culture Medium, clinically isolated strain Avium (S597)
[20] = MH Culture Medium, clinically isolated strain Avium (S602)
[21] = MH Culture Medium, Kansasii (standard strain)
[22] = MH Culture Medium, clinically isolated strain Kansasii (S9)
[23] = MH Culture Medium, clinically isolated strain Kansasii (S199)
[24] = MH Culture Medium, clinically isolated strain Kansasii (S520)
[25] = MH Culture Medium, clinically isolated strain Kansasii (S609)
[26] = 7H9 Culture Medium, Mycobacterium avium Rough
[27] = 7H9 Culture Medium, Mycobacterium avium Smooth
[28] = MH Culture Medium, Mycobacterium avium Rough
[29] = MH Culture Medium, Mycobacterium avium Smooth
[30] = Intracellulare (standard strain)
[31] = clinically isolated strain Intracellulare (S90)
[32] = clinically isolated strain Intracellulare (S261)
[33] = clinically isolated strain Intracellulare (S269)
[34] = clinically isolated strain Intracellulare (S290)
[35] = clinically isolated strain Intracellulare (S291)
[36] = clinically isolated strain Intracellulare (S298)
[37] = clinically isolated strain Intracellulare (S541)
[38] = clinically isolated strain Intracellulare (S623)
[39] = clinically isolated strain Intracellulare (ZPS)
[40] = clinically isolated strain intracellulare (S442)
[41] = MH Culture Medium, clinically isolated strain Massiliense (D18)
[42] = MH Culture Medium, clinically isolated strain Massiliense (D10)
[43] = clinically isolated strain Fortuitum (S103)
[44] = clinically isolated strain Fortuitum (S111)

SMILES: CC[C@H]1OC(=O)[C@H](C)[C@@H](O[C@H]2C[C@@](C)(OC)[C@@H](O)[C@H](C)O2)[C@H](C)[C@@H](O[C@@H]2O[C@H](C)C[C@H](N(C)C)[C@H]2O)[C@](C)(OC)C[C@@H](C)C(=O)[C@H](C)[C@@H](O)[C@]1(C)O [Clarithromycin]
- MIC (Mycobacterium avium [1]; [9]): > 64 µg/mL
- MIC (Mycobacterium avium [1]; [10]): 32 µg/mL (≈ 42.8 µM)
- MIC (Mycobacterium avium [1]; [11]): > 64 µg/mL
- MIC (Mycobacterium avium [1]; [12]): > 64 µg/mL
- MIC (Mycobacterium avium [1]; [13]): 0.0625 µg/mL (≈ 0.0836 µM)
- MIC (Mycobacterium avium [1]; [14]): 0.125 µg/mL (≈ 0.167 µM)
- MIC (Mycobacterium avium [1]; [15]): 0.5 µg/mL (≈ 0.668 µM)
- MIC (Mycobacterium avium [1]; [16]): 0.25 µg/mL (≈ 0.334 µM)
- MIC (Mycobacterium avium [1]; [17]): 4 µg/mL (≈ 5.35 µM)
- MIC (Mycobacterium avium [1]; [18]): 0.25 µg/mL (≈ 0.334 µM)
- MIC (Mycobacterium avium [1]; [19]): 1 µg/mL (≈ 1.34 µM)
- MIC (Mycobacterium avium [1]; [20]): 1 µg/mL (≈ 1.34 µM)
- MIC (Mycobacterium abscessus [2]; 7H9 Broth): 16 µg/mL (≈ 21.4 µM)
- MIC (Mycobacterium abscessus [2]; MH Broth): 64 µg/mL (≈ 85.6 µM)
- MIC (Mycobacterium kansasii [3]; 7H9 Broth): 2 µg/mL (≈ 2.67 µM)
- MIC (Mycobacterium kansasii [3]; MH Broth): 2 µg/mL (≈ 2.67 µM)
- MIC (Mycobacterium kansasii [3]; [21]): 0.0625 µg/mL (≈ 0.0836 µM)
- MIC (Mycobacterium kansasii [3]; [22]): 0.125 µg/mL (≈ 0.167 µM)
- MIC (Mycobacterium kansasii [3]; [23]): 0.0625 µg/mL (≈ 0.0836 µM)
- MIC (Mycobacterium kansasii [3]; [24]): 0.0625 µg/mL (≈ 0.0836 µM)
- MIC (Mycobacterium kansasii [3]; [25]): 0.125 µg/mL (≈ 0.167 µM)
- MBC (Mycobacterium avium [4]; [26]): > 64 µg/mL
- MBC (Mycobacterium avium [4]; [27]): > 64 µg/mL
- MBC (Mycobacterium avium [4]; [28]): > 64 µg/mL
- MBC (Mycobacterium avium [4]; [29]): > 64 µg/mL
- Minimum Bactericidal Concentration (MBC) (Mycobacterium abscessus [5]): >64 µg/mL
- MBC (Mycobacterium abscessus [5]): > 64 µg/mL
- MBC (Mycobacterium kansasii [6]; 7H9 Culture Medium): 64 µg/mL (≈ 85.6 µM)
- MBC (Mycobacterium kansasii [6]; MH Culture Medium): > 64 µg/mL
- MIC [7, 30]: 0.0625 µg/mL (≈ 0.0836 µM)
- MIC [7, 31]: 1 µg/mL (≈ 1.34 µM)
- MIC [7, 32]: 1 µg/mL (≈ 1.34 µM)
- MIC [7, 33]: 1 µg/mL (≈ 1.34 µM)
- MIC [7, 34]: 1 µg/mL (≈ 1.34 µM)
- MIC [7, 35]: 1 µg/mL (≈ 1.34 µM)
- MIC [7, 36]: 2 µg/mL (≈ 2.67 µM)
- MIC [7, 37]: 64 µg/mL (≈ 85.6 µM)
- MIC [7, 38]: 4 µg/mL (≈ 5.35 µM)
- MIC [7, 39]: 1 µg/mL (≈ 1.34 µM)
- MIC [7, 40]: 2 µg/mL (≈ 2.67 µM)
- Minimum Inhibitory Concentration (MIC) [8, 41]: 0.0625 µg/mL
- MIC [8, 42]: 0.25 µg/mL (≈ 0.334 µM)
- MIC [8]: 0.0625 µg/mL (≈ 0.0836 µM)
- MIC (Mycobacterium fortuitum; Fortuitum (standard strain)): 32 µg/mL (≈ 42.8 µM)
- MIC (Mycobacterium fortuitum; [43]): > 64 µg/mL
- MIC (Mycobacterium fortuitum; [44]): 2 µg/mL (≈ 2.67 µM)
- MIC (Mycodacterium chelonei): 0.5 µg/mL (≈ 0.668 µM)

- MIC (Mycobacterium avium [1]; [9]): > 64 µg/mL
- MIC (Mycobacterium avium [1]; [10]): 4 µg/mL (≈ 3.32 µM)
- MIC (Mycobacterium avium [1]; [11]): > 64 µg/mL
- MIC (Mycobacterium avium [1]; [12]): 4 µg/mL (≈ 3.32 µM)
- MIC (Mycobacterium avium [1]; [13]): 1 µg/mL (≈ 0.831 µM)
- MIC (Mycobacterium avium [1]; [14]): 0.25 µg/mL (≈ 0.208 µM)
- MIC (Mycobacterium avium [1]; [15]): 8 µg/mL (≈ 6.65 µM)
- MIC (Mycobacterium avium [1]; [16]): 0.25 µg/mL (≈ 0.208 µM)
- MIC (Mycobacterium avium [1]; [17]): 32 µg/mL (≈ 26.6 µM)
- MIC (Mycobacterium avium [1]; [18]): 0.125 µg/mL (≈ 0.104 µM)
- MIC (Mycobacterium avium [1]; [19]): > 64 µg/mL
- MIC (Mycobacterium avium [1]; [20]): 8 µg/mL (≈ 6.65 µM)
- MIC (Mycobacterium abscessus [2]; 7H9 Broth): 1 µg/mL (≈ 0.831 µM)
- MIC (Mycobacterium abscessus [2]; MH Broth): 1 µg/mL (≈ 0.831 µM)
- MIC (Mycobacterium kansasii [3]; 7H9 Broth): 2 µg/mL (≈ 1.66 µM)
- MIC (Mycobacterium kansasii [3]; MH Broth): 2 µg/mL (≈ 1.66 µM)
- MIC (Mycobacterium kansasii [3]; [21]): 0.0625 µg/mL (≈ 0.0519 µM)
- MIC (Mycobacterium kansasii [3]; [22]): 0.25 µg/mL (≈ 0.208 µM)
- MIC (Mycobacterium kansasii [3]; [23]): 0.0625 µg/mL (≈ 0.0519 µM)
- MIC (Mycobacterium kansasii [3]; [24]): 0.0625 µg/mL (≈ 0.0519 µM)
- MIC (Mycobacterium kansasii [3]; [25]): 0.0625 µg/mL (≈ 0.0519 µM)
- MIC [7, 30]: 0.5 µg/mL (≈ 0.415 µM)
- MIC [7, 31]: 64 µg/mL (≈ 53.2 µM)
- MIC [7, 32]: 64 µg/mL (≈ 53.2 µM)
- MIC [7, 33]: > 64 µg/mL
- MIC [7, 34]: 64 µg/mL (≈ 53.2 µM)
- MIC [7, 35]: 64 µg/mL (≈ 53.2 µM)
- MIC [7, 36]: 64 µg/mL (≈ 53.2 µM)
- MIC [7, 37]: 32 µg/mL (≈ 26.6 µM)
- MIC [7, 38]: 64 µg/mL (≈ 53.2 µM)
- MIC [7, 39]: 32 µg/mL (≈ 26.6 µM)
- MIC [7, 40]: 32 µg/mL (≈ 26.6 µM)
- MIC [8, 42]: > 64 µg/mL
- MIC ([8]; MH Culture Medium, clinically isolated strain Massiliense (D14)): > 64 µg/mL
- MIC [8, 41]: > 64 µg/mL
- MIC (Mycobacterium fortuitum; Fortuitum (standard strain)): 64 µg/mL (≈ 53.2 µM)
- MIC (Mycobacterium fortuitum; [43]): > 64 µg/mL
- MIC (Mycobacterium fortuitum; [44]): > 64 µg/mL
- MIC (Mycodacterium chelonei): 64 µg/mL (≈ 53.2 µM)
SMILES: CO[C@H]1/C=C/O[C@@]2(C)Oc3c(C)c(O)c4c(O)c(c(/C=N/N5CCC(N(C)C6([C@@H]7CCN(c8c(F)cn9c(=O)c(C(=O)O)cc(C%10CC%10)c9c8C)C7)CC6)CC5)c(O)c4c3C2=O)NC(=O)/C(C)=C\C=C\[C@H](C)[C@H](O)[C@@H](C)[C@@H](O)[C@@H](C)[C@H](CC(C)=O)[C@@H]1C [Compound I]
- activity compared with controls, in words (Mycobacterium kansasii [3]; against mycobacterium kansasii): much higher than that of rifampicin, ciprofloxacin and metronidazole
- MBC (Mycobacterium avium [4]; [26]): > 64 µg/mL
- MBC (Mycobacterium avium [4]; [27]): 16 µg/mL (≈ 13.3 µM)
- MBC (Mycobacterium avium [4]; [28]): > 64 µg/mL
- MBC (Mycobacterium avium [4]; [29]): 16 µg/mL (≈ 13.3 µM)
- bactericidal activity (MBC), in words (Mycobacterium avium [4]; against smooth type strain of Mycobacterium avium): had an activity
- Minimum Bactericidal Concentration (MBC) (Mycobacterium abscessus [5]): 1 µg/mL
- MBC (Mycobacterium abscessus [5]): 1 µg/mL (≈ 0.831 µM)
- MBC (Mycobacterium kansasii [6]; 7H9 Culture Medium): 2 µg/mL (≈ 1.66 µM)
- MBC (Mycobacterium kansasii [6]; MH Culture Medium): 2 µg/mL (≈ 1.66 µM)
- bactericidal activity (MBC) compared with controls, in words (Mycobacterium kansasii [6]; against mycobacterium kansasii): higher than or much higher than that of all other tested antibiotic drugs
- activity, in words ([7]; against Mycobacterium intracellulare): weak
